pIC50: −log10 of the molar value. Bounds are passed on as bounds.

The target in this experiment is T1, purified STEP46 enzyme (Homo sapiens, UniProt P54829).
T1 sequence (P54829 1-565): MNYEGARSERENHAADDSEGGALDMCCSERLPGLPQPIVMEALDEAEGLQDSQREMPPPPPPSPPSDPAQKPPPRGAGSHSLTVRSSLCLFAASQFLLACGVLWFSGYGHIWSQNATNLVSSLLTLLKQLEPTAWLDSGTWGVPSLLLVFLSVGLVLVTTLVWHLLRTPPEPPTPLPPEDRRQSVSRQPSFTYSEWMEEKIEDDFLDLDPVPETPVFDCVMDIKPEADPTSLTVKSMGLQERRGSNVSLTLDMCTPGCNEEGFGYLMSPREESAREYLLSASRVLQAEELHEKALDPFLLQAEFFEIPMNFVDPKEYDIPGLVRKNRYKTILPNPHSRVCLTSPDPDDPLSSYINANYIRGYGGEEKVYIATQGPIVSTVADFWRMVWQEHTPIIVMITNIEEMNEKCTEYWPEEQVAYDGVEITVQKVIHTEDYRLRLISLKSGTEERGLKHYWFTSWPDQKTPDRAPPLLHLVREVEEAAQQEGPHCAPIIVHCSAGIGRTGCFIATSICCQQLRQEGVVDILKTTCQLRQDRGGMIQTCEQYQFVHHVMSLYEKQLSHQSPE
Put plainly: STEP46 biochemical assay (DiFMUP fluorescence phosphatase assay). Conditions: DiFMUP 10 μM, read-out: STEP IC50. How it is done:
STEP46 Biochemical Assays
Serial dilutions of compounds were performed in 100% DMSO and 1 uL of compounds were dispensed into 384-well black polystyrene plates (Corning, NY). Compounds were incubated with 24 uL of buffer containing 50 mM Hepes, 1 mM DTT, 0.02% Brij35, 1 ng/well purified STEP46 enzyme for 30 min at room temperature. The reaction was initiated by addition of 25 uL of DiFMUP (6, 8-difluoro-4-methylumbelliferyl phosphate) (InVitrogen, CA) with a final concentration of 10 μM and incubated at 27° C. for 90 min. Final DMSO concentration is 2%. Plates were read with florescence intensity at excitation/emission of 360/460 nm using a PheraStar plate reader (BMG Labtech, NC).
Data were expressed as percentage (%) inhibition of enzyme activity. 0% inhibition is defined as the RFUs (relative fluorescence units) in the absence of compounds and 100% inhibition is defined as RFUs in the absence of STEP46 enzyme. IC50 values of compounds with inhibitory activity against STEP46 were determined by GraphPad Prism (version 4.03) using four parameter logistic equation. Some compounds act as activators. For compounds showing STEP46 enzymatic activation, data are represented as percentage of inhibition but with negative values at three representative concentrations (25, 50 and 100 uM).
Take `CNc1nc(-c2cccnc2)nc2cc(-c3cccc(F)c3)c(C)cc12` [Compound 1402]: the pIC50 was 5.00 to 6.00.

`Clc1cc(Cl)cc(Nc2nc(-c3cnccn3)nc3ccccc23)c1` [Compound 1222]: the pIC50 is 5.00 to 6.00.

As for `NC(=O)c1ccccc1Nc1nc(-c2cccnc2)nc2cc(-c3cccc(F)c3F)ccc12` [Compound 705], the pIC50 was over 6.00.

`CN(C)c1ccc2nc(-c3ccnnc3)nc(Nc3cccc(OC(F)F)c3)c2c1` [Compound 1153]: the pIC50 was 5.00 to 6.00.

For the compound `CNc1nc(-c2cccnc2)nc2cc(-c3ccc(OC)cc3)c(C)cc12` [Compound 1413], the pIC50 is 5.00 to 6.00.

For `N#Cc1cccc(Nc2nc(-c3cnccn3)nc3cc(Cl)ccc23)c1` [Compound 1144], the pIC50 is 5.00 to 6.00.

Turning to `FC(F)Oc1cc(Cl)cc(Nc2nc(-c3cccnc3)nc3ccccc23)c1` [Compound 1213], the pIC50 was 5.00 to 6.00.

As to `CNc1nc(-c2cccnc2)nc2ccc(-c3cc(F)c(F)cc3F)cc12` [Compound 1376], the pIC50 was 5.00 to 6.00.

`COc1ncccc1-c1ccc2nc(-c3cccnc3)nc(Nc3ccc(F)c(Cl)c3)c2c1` [Compound 650]: the pIC50 is over 6.00.

Regarding `COc1ccc(OC)c(-c2ccc3nc(-c4cccnc4)nc(Nc4ccc(F)c(Cl)c4)c3c2)c1` [Compound 645], the pIC50 is 5.00 to 6.00.

As to `COc1ccc(-c2ccc3c(Nc4ccc(F)c(Cl)c4)nc(-c4cccnc4)nc3c2)cc1` [Compound 680], the pIC50 was 5.00 to 6.00.

Turning to `Fc1ccc(Nc2nc(-c3cnccn3)nc3cc(Cl)ccc23)cc1F` [Compound 1142], the pIC50 is 5.00 to 6.00.

Regarding `CCNC(=O)c1sc(Nc2nc(-c3cccnc3)nc3ccc(OC)cc23)nc1-c1ccccc1` [Compound 1126], the pIC50 was 5.00 to 6.00.

Take `CN(C)c1nc(-c2cccnc2)nc2ccc(-c3cccc([N+](=O)[O-])c3)cc12` [Compound 1335]: the pIC50 was 5.00 to 6.00.

On to `FC(F)Oc1cccc(Nc2nc(-c3cnccn3)nc3ccccc23)c1` [Compound 1214], for which the pIC50 is 5.00 to 6.00.

For the compound `Fc1ccc(Nc2nc(-c3cccnc3)nc3ccc(-c4ccsc4)cc23)cc1Cl` [Compound 648], the pIC50 is 5.00 to 6.00.

On to `Cc1cccc2c(Nc3cc(Cl)cc(Cl)c3)nc(-c3cnccn3)nc12` [Compound 1180], for which the pIC50 was 5.00 to 6.00.

As to `Cc1cccc(CNc2nc(-c3cccnc3)nc3cc(-c4cc(F)ccc4F)ccc23)n1` [Compound 1430], the pIC50 is 5.00 to 6.00.

Consider `NC(=O)c1ccccc1Nc1nc(-c2cccnc2)nc2cc(-c3ccccc3F)ccc12` [Compound 702], for which the pIC50 is over 6.00.

For `CNc1nc(-c2cccnc2)nc2cc(-c3ccc(F)cc3F)ccc12` [Compound 1372], the pIC50 is 5.00 to 6.00.

Consider `COc1ccc2nc(-c3cccnc3)nc(Nc3nc(-c4ccccc4OC)cs3)c2c1` [Compound 436], for which the pIC50 is 5.00 to 6.00.

In the case of `FC(F)Oc1cccc(Nc2nc(-c3cnccn3)nc3cc(Cl)ccc23)c1` [Compound 1145], the pIC50 is 5.00 to 6.00.

Regarding `COc1ccc2nc(-c3cnccn3)nc(Nc3ccc(F)c(Cl)c3)c2c1` [Compound 1191], the pIC50 was 5.00 to 6.00.

For `Fc1ccc(Nc2nc(-c3cnccn3)nc3cc(Cl)ccc23)cc1Cl` [Compound 1141], the pIC50 was over 6.00.

On to `NC(=O)c1ccccc1-c1ccc2c(Nc3ccc(F)c(Cl)c3)nc(-c3cccnc3)nc2c1` [Compound 683], for which the pIC50 is 5.00 to 6.00.

As to `NC(=O)c1ccccc1Nc1nc(-c2cnccn2)nc2ccc(Cl)cc12` [Compound 1157], the pIC50 is 5.00 to 6.00.

For the compound `Fc1ccc(Nc2nc(-c3cccnc3)nc3ccc(-c4ccc5c(c4)OCO5)cc23)cc1Cl` [Compound 662], the pIC50 was over 6.00.

For `COc1ccc2nc(-c3ccnnc3)nc(Nc3ccc(Cl)c(Cl)c3)c2c1` [Compound 1184], the pIC50 was 5.00 to 6.00.

As to `FC(F)(F)Oc1cccc(Nc2nc(-c3ccnnc3)nc3ccccc23)c1` [Compound 1182], the pIC50 was 5.00 to 6.00.

Consider `COc1ccc2nc(-c3cccnc3)nc(Nc3nnc(-c4ccc(F)cc4)s3)c2c1` [Compound 423], for which the pIC50 was 5.00 to 6.00.

Consider `CNc1nc(-c2cccnc2)nc2c(C)c(-c3cccc(OC)c3)ccc12` [Compound 1456], for which the pIC50 is 5.00 to 6.00.

For the compound `COc1ccc(Cl)c(Nc2nc(-c3cccnc3)nc3ccc(OC)cc23)c1` [Compound 932], the pIC50 was 5.00 to 6.00.

For `Fc1ccc(Nc2nc(-c3cnccn3)nc3ccc(Cl)cc23)cc1Cl` [Compound 1159], the pIC50 is 5.00 to 6.00.

In the case of `Cc1cccc2c(Nc3ccc(Cl)c(Cl)c3)nc(-c3cnccn3)nc12` [Compound 1178], the pIC50 was 5.00 to 6.00.

With `COc1ccc2nc(-c3cccnc3)nc(Nc3ccc4c(c3)COC4)c2c1` [Compound 962], the pIC50 was over 6.00.

On to `Fc1ccc(-c2ccc3c(Nc4ccc(F)c(Cl)c4)nc(-c4cccnc4)nc3c2)c(F)c1` [Compound 698], for which the pIC50 was over 6.00.

As for `COc1cncc(-c2ccc3nc(-c4cccnc4)nc(Nc4ccc5[nH]c(=O)sc5c4)c3c2)c1` [Compound 329], the pIC50 was over 6.00.

Take `CNc1nc(-c2cccnc2)nc2cc(-c3ccc(F)c(F)c3)ccc12` [Compound 1373]: the pIC50 is 5.00 to 6.00.

`COc1ccc2nc(-c3ccnnc3)nc(Nc3cccc(C#N)c3)c2c1` [Compound 1187]: the pIC50 is over 6.00.

Regarding `CN(C)c1nc(-c2cccnc2)nc2ccc(-c3ccc(F)cc3F)cc12` [Compound 1381], the pIC50 was 5.00 to 6.00.

Take `CNc1nc(-c2cccnc2)nc2c(C)cc(-c3ccc(OC)cc3)cc12` [Compound 1282]: the pIC50 is 5.00 to 6.00.

For `CNc1nc(-c2cccnc2)nc2c(C)cc(-c3cccc(F)c3)cc12` [Compound 1280], the pIC50 is 5.00 to 6.00.

`Fc1ccc(Nc2nc(-c3cnccn3)nc3ccccc23)cc1F` [Compound 1220]: the pIC50 is under 5.00.

As for `CNc1nc(-c2cccnc2)nc2c(C)c(-c3cc(F)cc(F)c3)ccc12` [Compound 1448], the pIC50 was 5.00 to 6.00.

As for `N#Cc1cccc(Nc2nc(-c3cnccn3)nc3ccc(Cl)cc23)c1` [Compound 1158], the pIC50 is 5.00 to 6.00.

Take `CNc1nc(-c2cccnc2)nc2cc(C)c(-c3cccc(OC)c3)cc12` [Compound 1419]: the pIC50 was 5.00 to 6.00.

Take `COc1ccc2nc(-c3cccnc3)nc(Nc3nc(-c4ccc(C)cc4)cs3)c2c1` [Compound 429]: the negative-log IC50 (pIC50) is over 6.00.

With `CN(C)c1nc(-c2cccnc2)nc2ccc(-c3cccc(F)c3)cc12` [Compound 1324], the pIC50 was 5.00 to 6.00.

As to `COc1ccc2nc(-c3cccnc3)nc(Nc3nc(-c4ccc(Cl)cc4)c(C)s3)c2c1` [Compound 461], the pIC50 is 5.00 to 6.00.

Turning to `COc1ccc2nc(-c3cccnc3)nc(Nc3nc(-c4ccc(C#N)cc4)cs3)c2c1` [Compound 448], the pIC50 was over 6.00.

With `CNc1nc(-c2cccnc2)nc2c(C)c(-c3ccc(F)cc3)ccc12` [Compound 1447], the negative-log IC50 (pIC50) is under 5.00.

For `COc1ccc2nc(-c3cccnc3)nc(Nc3ccc4oc(=O)n(C)c4c3)c2c1` [Compound 318], the pIC50 was 5.00 to 6.00.

As to `N#Cc1cccc(Nc2nc(-c3ccnnc3)nc3cc(Cl)ccc23)c1` [Compound 1203], the pIC50 was 5.00 to 6.00.

`c1cncc(-c2ccc3nc(-c4cccnc4)nc(Nc4ccc5ccsc5c4)c3c2)c1` [Compound 313]: the pIC50 is over 6.00.

Regarding `Fc1ccc(Nc2nc(-c3cccnc3)nc3cc(-c4ccccc4F)ccc23)cc1Cl` [Compound 687], the pIC50 was over 6.00.

As to `CCOc1ccc2nc(-c3cccnc3)nc(Nc3ccc4c(c3)NC(=O)CO4)c2c1` [Compound 336], the pIC50 is over 6.00.

On to `CN(C)C(=O)COc1ccc2nc(-c3cccnc3)nc(Oc3ccc(F)c(Cl)c3)c2c1` [Compound 846], for which the pIC50 is 5.00 to 6.00.

As to `CNc1nc(-c2cccnc2)nc2cc(-c3cccc(F)c3)ccc12` [Compound 1359], the pIC50 was 5.00 to 6.00.

For the compound `CNc1nc(-c2cccnc2)nc2c(C)c(-c3ccc(OC)cc3)ccc12` [Compound 1455], the negative logarithm of the IC50 (pIC50) was 5.00 to 6.00.

For the compound `FC(F)Oc1cccc(Nc2nc(-c3ccncn3)nc3ccccc23)c1` [Compound 1208], the pIC50 was under 5.00.

Take `COc1ccc2nc(-c3cccnc3)nc(Nc3ccc4sc(=O)n(C)c4c3)c2c1` [Compound 327]: the pIC50 is 5.00 to 6.00.

Consider `COc1ccc2nc(-c3cccnc3)nc(Nc3ncc(-c4ccccc4)s3)c2c1` [Compound 418], for which the pIC50 is 5.00 to 6.00.

As for `Cc1cccc2c(Nc3ccc(F)c(Cl)c3)nc(-c3cnccn3)nc12` [Compound 1176], the pIC50 was 5.00 to 6.00.

As to `COc1ccc2nc(-c3cccnc3)nc(Nc3cccc4cc[nH]c34)c2c1` [Compound 300], the pIC50 was under 5.00.

Broadly, the pIC50 is the negative decadic logarithm of the IC50, by convention in mol/L.

(Values after patent US9630947B2, “Therapeutic compounds and related methods of use” (OTSUKA PHARMACEUTICAL CO., LTD., priority 2009, dated 2017).)
